According to patent US5763413A, “Lewis-associated compound, process for producing the same, and anti-inflammatory” (MECT Corporation, priority 1993, dated 1998):

Assays:
[1] = Simple acute toxicity test (intravenous injection); format: in vivo, male mice of ddY strain; conditions: 50 mg/kg, ddY mice; for Mortality: i.v. (tail vein); for mortality (in words): i.v.
Procedure: Example of Test 1 (Simple Acute Toxicity Test)
The simple acute toxicity test was carried out by an intravenous injection of compounds of the present invention.
Into the tail vein of male mice of ddY strain weighing 18~20 g which have been kept under the conditions at the temperature of 23°±1° C. and in the humidity of 55 ±7% were injected a solution of the compound of the present invention dissolved in the physiological saline containing the desired dose per 20 g body weighing 0.2 ml. Two dosages of which were 50 mg/kg and 500 mg/kg body weight were used.

[2] = tested on: adhesion of HL-60 cells to HUVEC monolayers (ELAM-1); experiment: Effect on the adhesion of HL-60 cells to HUVEC monolayers mediated by an adhesion molecule; format: cell-based, human; conditions: 10 μg/ml final, in lecithin/cholesterol liposome, IL-1β-stimulated HUVEC
Procedure: (Effect on the Adhesion of Cultured Cells Mediated by a Adhesion Molecule)
(2) Experimental methods and materials
HUVECs (Human umbilical vein endothelial cells: KURABO) were suspended in E-GM UV medium at the concentration of 5×10^3 cells/ml, 100-μl each aliquot thereof was distributed into a 96-well microplate and incubated in a 5% CO2 containing air at 37° C. with the medium being replaced fresh 24 h later. The culture was continued for another 5 days, and the following experiment was performed after the confluent growth of the cells was confirmed.
In order to express ELAM-1 on HUVEC monolayers, IL-1β (IL-1β, Human, Recombinant: Genzym) was added to said culture (final concentration, 10 units/ml) and incubated for 4 h, then the test compound (final concentration, 10 μg/ml) containing liposome prepared with lecithin and cholesterol was added and further incubated or 1 h. Then human promyelocytic leukemia cell line […] which had been cultured was added to said culture at the final concentration of 5×10^5 cells/ml and incubated for 15 min. After washing said culture with the culture medium 3 times to remove the non-adhering HL-60 cells, said culture was gently stirred overnight to strip HL-60 cells adhering to HUVEC monolayers and count. Percent inhibition of adhesion (%) was calculated from the following equation [Margaret, J. et al., Proc. Natl. Acad. Sci. USA, 88, 6224 (1991)]. […]

[3] = tested on: passive Arthus reaction; experiment: Anti-inflammatory activity test: passive Arthus reaction (Example of Test 2); format: in vivo, male guinea pigs of the Hartley strain; conditions: Table 21; 0.1 mg/kg i.v., 30 min before antigen
Procedure: Example of Test 2 (Anti-inflammatory Activity Test)
Male guinea pigs of the Hartley strain weighing 200~250 g were used.
(2) Experimental Materials
The anti-ovalbumin rabbit serum (PCA titer=1/80,000) and ovalbumin were used as the antiserum and antigen, respectively.
The passive Arthus reaction was performed according to the method of Katayama et al. [Katayama, S. et al., Arzeim-Forsch., 31, 1196 (1981)]. That is, guinea pigs were sensitized by an intravenous injection of said anti-ovalbumin rabbit serum (2.5 ml/kg). Thirty minutes after the injection, the Arthus reaction was induced by the intradermal injection of an antigen solution (0.05 ml) containing 0.10 mg of ovalbumin to the abdomen shaved the day before. Two hours after the antigen challenge, the area of intradermal bleeding was measured and used as the index representing the grade of inflammatory reaction. Test compounds were intravenously injected 30 min before the antigen injection. Four guinea pigs per each group were used.
The percent inhibi- is expressed as the bleeding area of the challenged site (%) of the animal group injected with each compound relative to that (100%) of the group administered with the physiological saline.

SMILES	Mortality [1]	mortality (in words) [1]	Adhesion inhibitory activity [2] [%]	Percent inhibition (passive Arthus reaction) [3] [%]
CCCCCCCCCCCCCC=CC(O)C(COC1OC(CO)C(OC2OC(CO)C(O)C(OC3OC(CO)C(OC4OC(CO)C(O)C(OS(=O)(=O)[O-])C4OS(=O)(=O)[O-])C(OC4OC(C)C(O)C(O)C4O)C3NC(C)=O)C2O)C(O)C1O)NC(=O)CCCCCCCCCCCCCCCCCCCCCCC.[Na+].[Na+] (centres unmarked) [Compound 77]	0/3	no mortality was observed	21.0 ± 15.0	40.4 ± 5.1
CCCCCCCCCCCCCC=CC(O)C(COC1OC(CO)C(OC2OC(CO)C(O)C(OC3OC(CO)C(OC4OC(CO)C(O)C(OS(=O)(=O)[O-])C4O)C(OC4OC(C)C(O)C(O)C4O)C3NC(C)=O)C2O)C(O)C1O)NC(=O)CCCCCCCCCCCCCCCCCCCCCCC.[Na+] (centres unmarked) [Compound 78]	0/3	no mortality was observed	20.7 ± 3.7	32.5 ± 7.3
